Measurements from ChEMBL document CHEMBL5380773, “Novel Feleucin-K3-Derived Peptides Modified with Sulfono-γ-AA Building Blocks Targeting Pseudomonas aeruginosa and Methicillin-Resistant Staphylococcus aureus Infections” (J Med Chem, 2023).
Converted amounts (≈) assume the structure as drawn. The source made the active and inactive calls. No cut-off for these calls is given here. Numbered stars: 1 amine (or outer) side, 2 acyl side, 3 side chain; on linkers, the order of the positions; unused ones are H or OH. Square brackets hold non-standard residues; d marks the D form. Peptide text beside a SMILES is read from it. * marks the point of attachment. X2 = CC(C)C[C@H](N)CN(CC(=O)[*:2])[*:1]; X1 = O=S(=O)(c1ccc(I)cc1)*

Key:
Staphylococcus aureus [1] = assay: Antimicrobial activity against methicillin resistant Staphylococcus aureus ATCC 33591 incubated for 18 hrs by microdilution method; assay type: functional
Erythrocyte = assay: Hemolytic activity against mouse red blood cells incubated for 1 hr; assay type: toxicity, cell-based
Pseudomonas aeruginosa [2] = assay: Antibiofilm activity against Pseudomonas aeruginosa ATCC 27853 at 4 to 8 ug/ml incubated for 24 hrs by crystal violet staining based microplate reader analysis; assay type: functional, organism-based; settings: dose 4-8 µg/ml
Staphylococcus aureus [3] = assay: Antibiofilm activity against Staphylococcus aureus ATCC 25923 at 4 to 8 ug/ml incubated for 24 hrs by crystal violet staining based microplate reader analysis; assay type: functional, organism-based; settings: dose 4-8 µg/ml
Staphylococcus aureus [4] = assay: Antibiofilm activity against methicillin resistant staphylococcus aureus ATCC 33591 at 4 to 8 ug/ml incubated for 24 hrs by crystal violet staining based microplate reader analysis; assay type: functional, organism-based; settings: dose 4-8 µg/ml
[5] = tested on: Staphylococcus epidermidis; assay: Bactericidal activity against Staphylococcus epidermidis ATCC 12228 at 4 times MIC after 0.5 hrs; assay type: functional, organism-based
Staphylococcus aureus [6] = assay: Bactericidal activity against Staphylococcus aureus ATCC 25923 at 4 times MIC after 2 to 4 hrs; assay type: functional, organism-based; settings: time 2-4 hrs
Staphylococcus aureus [7] = assay: Bactericidal activity against methicillin resistant Staphylococcus aureus ATCC 33591 at 4 times MIC after 2 to 4 hrs; assay type: functional, organism-based; settings: time 2-4 hrs
Pseudomonas aeruginosa [8] = assay: Antibiofilm activity against Pseudomonas aeruginosa ATCC 27853 assessed as reduction in biofilm thickness at 1 times MBIC50 incubated for 24 hrs by confocal laser scanning microscopy analysis (reference value: 90 micrometer); assay type: functional
Pseudomonas aeruginosa [9] = assay: Antibiofilm activity against Pseudomonas aeruginosa ATCC 27853 assessed as reduction in biofilm thickness at 2 times MBIC90 incubated for 24 hrs by confocal laser scanning microscopy analysis; assay type: functional
[10] = tested on: Staphylococcus epidermidis; assay: Antibiofilm activity against Staphylococcus epidermidis ATCC 12228 assessed as reduction in biofilm thickness; assay type: functional, organism-based
[11] = tested on: Staphylococcus epidermidis; assay: Antibiofilm activity against Staphylococcus epidermidis ATCC 12228 assessed as reduction in biofilm mass; assay type: functional, organism-based
Staphylococcus aureus [12] = assay: Antibiofilm activity against methicillin resistant Staphylococcus aureus ATCC 33591 assessed as reduction in biofilm structures at MBIC90 by scanning electron microscopic analysis; assay type: functional, organism-based
Pseudomonas aeruginosa [13] = assay: Bactericidal activity against Pseudomonas aeruginosa ATCC 27853 at 4 times MIC after 5 mins by time kill assay; assay type: functional, organism-based
Pseudomonas aeruginosa [14] = assay: Bactericidal activity against Pseudomonas aeruginosa ATCC 27853 at 4 times MIC after 30 mins by time kill assay; assay type: functional, organism-based
Pseudomonas aeruginosa [15] = assay: Bactericidal activity against Pseudomonas aeruginosa ATCC 27853 at 4 times MIC after 2 to 6 hrs by time kill assay; assay type: functional, organism-based; settings: time 2-6 hrs
Staphylococcus aureus [16] = assay: Bactericidal activity against methicillin resistant Staphylococcus aureus ATCC 33591 at 4 times MIC after 1 to 2.5 hrs by time kill assay; assay type: functional, organism-based; settings: time 1-2.5 hrs
Pseudomonas aeruginosa [17] = assay: Induction of resistant development in Pseudomonas aeruginosa ATCC 27853 at sub-MIC after 20 days; assay type: functional, organism-based; settings: time 20.0 day
Cell membrane [18] = assay: Induction of outer membrane disruption in Pseudomonas aeruginosa in presence of FeCl3 by NPN uptake assay; assay type: subcellular
Cell membrane [19] = assay: Induction of outer membrane disruption in Pseudomonas aeruginosa in presence of CaCl2 by NPN uptake assay; assay type: subcellular
Cell membrane [20] = assay: Induction of cytoplasmic membrane depolarization in methicillin resistant Staphylococcus aureus ATCC 33591 by DiSC35 dye based fluorescence method
Cell membrane [21] = assay: Induction of membrane disruption in Pseudomonas aeruginosa ATCC 27853 assessed as membrane shrinkage at low concentration incubated for 24 hrs by SEM analysis; assay type: subcellular
Cell membrane [22] = assay: Induction of membrane disruption in Pseudomonas aeruginosa ATCC 27853 assessed as membrane collapse at high concentration incubated for 24 hrs by SEM analysis; assay type: subcellular
Cell membrane [23] = assay: Induction of membrane disruption in methicillin resistant Staphylococcus aureus ATCC 33591 assessed as membrane shrinkage at low concentration incubated for 24 hrs by SEM analysis; assay type: subcellular
Cell membrane [24] = assay: Induction of membrane disruption in methicillin resistant Staphylococcus aureus ATCC 33591 assessed as membrane blebbing at low concentration incubated for 24 hrs by SEM analysis; assay type: subcellular
Cell membrane [25] = assay: Induction of membrane disruption in methicillin resistant Staphylococcus aureus ATCC 33591 assessed as cell lysis at high concentration incubated for 24 hrs by SEM analysis; assay type: subcellular
Cell membrane [26] = assay: Induction of membrane disruption in methicillin resistant Staphylococcus aureus ATCC 33591 assessed as separation […] at 2 to 4 times MIC incubated for 2 to 4 hrs by TEM analysis; assay type: subcellular; settings: time 2-4 hrs
Cell membrane [27] = assay: Induction of membrane disruption in methicillin resistant Staphylococcus aureus ATCC 33591 assessed as cytoplasmic leakage at 2 to 4 times MIC incubated for 2 to 4 hrs by TEM analysis; assay type: subcellular; settings: time 2-4 hrs
Pseudomonas aeruginosa [28] = assay: Induction of DNA leakage in Pseudomonas aeruginosa ATCC 27853; assay type: functional, organism-based; settings: TDE = time-dependent effect
Pseudomonas aeruginosa [29] = assay: Induction of protein leakage in Pseudomonas aeruginosa ATCC 27853; assay type: functional, organism-based; settings: TDE = time-dependent effect
DNA [30] = assay: Binding affinity to Staphylococcus aureus DNA at 8 times MIC incubated for 30 mins; assay type: nucleic-acid assay
DNA [31] = assay: Binding affinity to methicillin resistant Staphylococcus aureus DNA at 8 times MIC incubated for 30 mins; assay type: nucleic-acid assay
DNA [32] = assay: Binding affinity to Staphylococcus epidermidis DNA at 8 times MIC incubated for 30 mins; assay type: nucleic-acid assay
Pseudomonas aeruginosa [33] = assay: Antimicrobial activity against Pseudomonas aeruginosa ATCC 27853 infected in C57BL/6J mouse assessed as reduction in lung bacterial load at 10 mg/kg, ip measured after 72 hrs […] (reference value: 6.4 10^3CFU/mg); assay type: functional
Pseudomonas aeruginosa [34] = assay: Antimicrobial activity against Pseudomonas aeruginosa ATCC 27853 infected in C57BL/6J mouse assessed as reduction in IL-6 at 2.5 mg/kg, ip measured after 72 hrs […]; assay type: functional, organism-based
Staphylococcus aureus [35] = assay: Antimicrobial activity against methicillin resistant Staphylococcus aureus ATCC 33591 infected in skin wound mouse model assessed as wound healing at 0.25 mg/kg measured upto 10 days by H and E staining based assay; assay type: functional, organism-based; settings: time <= 10.0 day
Staphylococcus aureus [36] = assay: Antimicrobial activity against methicillin resistant Staphylococcus aureus ATCC 33591 infected in skin wound mouse model assessed as reduction in skin damage at 0.25 mg/kg measured upto 10 days by H and E staining based assay; assay type: functional, organism-based; settings: time <= 10.0 day
Staphylococcus aureus [37] = assay: Antimicrobial activity against methicillin resistant Staphylococcus aureus ATCC 33591 infected in skin wound mouse model assessed as reduction in number of inflammatory cells at 1 to 4 mg/kg measured on day 3 and 7 by H and E staining based assay; assay type: functional, organism-based; settings: dose 1-4 mg/kg, time 3-7 day
Staphylococcus aureus [38] = assay: Antimicrobial activity against methicillin resistant Staphylococcus aureus ATCC 33591 infected in skin wound mouse model assessed as reduction in edema at 1 to 4 mg/kg measured on day 3 and 7 by H and E staining based assay; assay type: functional, organism-based; settings: dose 1-4 mg/kg, time 3-7 day
Staphylococcus aureus [39] = assay: (§1) Antimicrobial activity against methicillin resistant Staphylococcus aureus ATCC 33591 infected in BALB/c mouse assessed as reduction in sessile bacteria attached on catheters surface at 0.25 to 1 mg/kg infected with bacteria for 2 hrs prior to compound addition on 1, 24 and 48 hrs and measured after 72 hrs […]; assay type: functional, organism-based; settings: dose 0.25-1 mg/kg
Staphylococcus aureus [40] = assay: as §1, with “inflammatory cell infiltration” for “sessile bacteria attached on catheters surface”; assay type: functional, organism-based; settings: dose 0.25-1 mg/kg

## CC(C)C[C@H](N)CN(CC(=O)N[C@@H](CCCCN)C(=O)N[C@@H](CC(C)C)C(=O)N[C@@H](CC(C)C)C(=O)N[C@@H](CCCCN)C(=O)N[C@@H](CCCCN)C(=O)N[C@@H](CC(C)C)C(=O)N[C@@H](CC(C)C)C(N)=O)S(=O)(=O)c1ccc(I)cc1 (X1-[X2]KLLKKLL-NH2)
Staphylococcus aureus [1]
  MIC: 2.8 µg/mL (≈ 2.19 µM)
Erythrocyte
  MHC: 256 µg/mL
Pseudomonas aeruginosa [2]
  Activity: Active
Staphylococcus aureus [3]
  Activity: Active
Staphylococcus aureus [4]
  Activity: Active
[5]
  Activity: Active
Staphylococcus aureus [6]
  Activity: Active
Staphylococcus aureus [7]
  Activity: Active
Pseudomonas aeruginosa [8]
  Activity: 40 um
Pseudomonas aeruginosa [9]
  Activity: 60 um
[10]
  Activity: Active
[11]
  Activity: Active
Staphylococcus aureus [12]
  Activity: Active
Pseudomonas aeruginosa [13]
  Activity: Active
Pseudomonas aeruginosa [14]
  Activity: Active
Pseudomonas aeruginosa [15]
  Activity: Active
Staphylococcus aureus [16]
  Activity: Active
Pseudomonas aeruginosa [17]
  Activity: Active
Cell membrane [18]
  Activity: Active
Cell membrane [19]
  Activity: Active
Cell membrane [20]
  Activity: Active
Cell membrane [21]
  Activity: Active
Cell membrane [22]
  Activity: Active
Cell membrane [23]
  Activity: Active
Cell membrane [24]
  Activity: Active
Cell membrane [25]
  Activity: Active
Cell membrane [26]
  Activity: Active
Cell membrane [27]
  Activity: Active
Pseudomonas aeruginosa [28]
  Activity: Tde
Pseudomonas aeruginosa [29]
  Activity: Tde
DNA [30]
  Activity: Active
DNA [31]
  Activity: Active
DNA [32]
  Activity: Active
Pseudomonas aeruginosa [33]
  Activity: 1 10^3CFU/mg
Pseudomonas aeruginosa [34]
  Activity: Active
Staphylococcus aureus [35]
  Activity: Active
Staphylococcus aureus [36]
  Activity: Active
Staphylococcus aureus [37]
  Activity: Active
Staphylococcus aureus [38]
  Activity: Active
Staphylococcus aureus [39]
  Activity: Active
Staphylococcus aureus [40]
  Activity: Active
